According to patent publication US20240189266A1, “Lactoyl Amino Acids for the Treatment of Metabolic Disease” (The Board of Trustees of the Leland Stanford Junior …, priority 2021, published 2024):

Legend:
[1] = Plasma Lac-Phe level after intraperitoneal injection; type: in vivo; conditions: C57BL/6J DIO, mouse, 50 mg/kg IP, DIO mice, mean±SEM, read-out: plasma levels 30 min post injection
Description: General animal information. Animal experiments were performed according to procedure approved by the Stanford University Administrative Panel on Laboratory Animal Care (APLAC). Mice were maintained in 12-hr light-dark cycles at 22° C. and ˜50% relative humidity and fed a standard irradiated rodent chow diet. Where indicated, high-fat diet (D12492, Research Diets 60% kcal from fat) was used. C57BL/6J (stock no. 000664) and C57BL/6J DIO mice (stock no. 380050) were purchased from Jackson Laboratory. C57BL/6NCrl (stock no. 027) mice were purchased from Charles River Laboratory. Whole body CNDP2 knockout mice (catalog number, C57BL/6NCrl-Cndp2em1(IMPC)Mbp/Mmucd, RRID: MMRRC_043492-UCD) were obtained from the Mutant Mouse Regional Resource Center, a NCRR-NIH funded strain repository. For in vivo injection of mice with compounds including Lac-Phe, lactate, and phenylalanine, compounds were dissolved in 18:1:1 (by volume) of saline/Kolliphor EL (Sigma Aldrich)/DMSO. Compounds were administered to mice daily via intraperitoneal injections at 5 μl/g body weight at the indicated doses. For all injection experiments, mice were mock injected with the vehicle for 3-5 days until body weights have stabilized. For glucose tolerance tests, mice were fasted for 6 hours then injected with glucose at 10 μl/g body weight. A dose of 1 g/kg was used for the GTT of vehicle and Lac-Phe treated obese mice. […]

[2] = Acute Lac-Phe administration to DIO mice in metabolic chambers; type: in vivo; conditions: single 50 mg/kg IP
Description: (§1) General animal information. Animal experiments were performed according to procedure approved by the Stanford University Administrative Panel on Laboratory Animal Care (APLAC). Mice were maintained in 12-hr light-dark cycles at 22° C. and ˜50% relative humidity and fed a standard irradiated rodent chow diet. Where indicated, high-fat diet (D12492, Research Diets 60% kcal from fat) was used. C57BL/6J (stock no. 000664) and C57BL/6J DIO mice (stock no. 380050) were purchased from Jackson Laboratory. C57BL/6NCrl (stock no. 027) mice were purchased from Charles River Laboratory. Whole body CNDP2 knockout mice (catalog number, C57BL/6NCrl-Cndp2em1(IMPC)Mbp/Mmucd, RRID: MMRRC_043492-UCD) were obtained from the Mutant Mouse Regional Resource Center, a NCRR-NIH funded strain repository. For in vivo injection of mice with compounds including Lac-Phe, lactate, and phenylalanine, compounds were dissolved in 18:1:1 (by volume) of saline/Kolliphor EL (Sigma Aldrich)/DMSO. Compounds were administered to mice daily via intraperitoneal injections at 5 μl/g body weight at the indicated doses. For all injection experiments, mice were mock injected with the vehicle for 3-5 days until body weights have stabilized. For glucose tolerance tests, mice were fasted for 6 hours then injected with glucose at 10 μl/g body weight. A dose of 1 g/kg was used for the GTT of vehicle and Lac-Phe treated obese mice.

[3] = Chronic 10-day Lac-Phe administration to DIO mice (food intake, body weight, GTT, tissue weights); type: in vivo
Description: as §1

[4] = 7-day comparison of Lac-Phe with lactate and phenylalanine in DIO mice; type: in vivo; conditions: 50 mg/kg IP daily, 13-week male DIO mice
Description: as §1

[5] = 9-day Lac-Phe treatment of 18 week DIO mice (FIG. 17); type: in vivo; conditions: 50 mg/kg/day IP
Description: as §1

[6] = system: AgRP neurons in the arcuate nucleus of hypothalamus (ARH); test: Whole-cell patch-clamp slice electrophysiology, AgRP neurons; type: cell-based, mice
Description: (§2) Slice electrophysiology studies. Several genetic mouse strains were used for electrophysiological recordings from identified neural populations. These included AgRP-IRES-Cre/Rosa26-LSL-tdTOMATO mice for recordings from AgRP neurons in the arcuate nucleus of hypothalamus (ARH); POMC-CreER/Rosa26-LSL-tdTOMATO mice (with 200 mg/kg tamoxifen induction at 8-12 weeks) were used for recordings from POMC neurons in the ARH; SF1-Cre/Rosa26-LSL-tdTOMATO mice were used for recordings from SF1 neurons in the ventromedial hypothalamus (VMH); TPH2-CreER/Rosa26-LSL-tdTOMATO mice (with 200 mg/kg tamoxifen induction at 8-12 weeks) were used for recording from 5-HT neurons in the dorsal raphe nucleus (DRN). Mice (males and females, 8-16 weeks old) were anesthetized with isoflurane and transcardially perfused with a modified ice-cold sucrose-based cutting solution (pH 7.4; containing 10 mM NaCl, 25 mM NaHCO3, 195 mM sucrose, 5 mM glucose, 2.5 mM KCl, 1.25 mM NaH2PO4, 2 mM sodium pyruvate, 0.5 mM CaCl2, and 7 mM MgCl2, bubbled continuously with 95% O2 and 5% CO2). The mice were then decapitated, and the entire brain was removed and immediately submerged in the cutting solution. Coronal slices (220 μm) were cut with a Microm HM 650V vibratome (Thermo Scientific). Brain slices containing the desired region (ARH, VMH, or DRN) were collected for each corresponding mouse, and recordings were made at levels throughout this brain region. The slices were recovered for ˜30 minutes at 32° C. and then maintained at room temperature for another 1 hour in oxygenated (95% O2 and 5% CO2) artificial cerebrospinal fluid (ACSF, pH 7.4; containing 126 mM NaCl, 2.5 mM KCl, 2.4 mM CaCl2, 1.2 mM NaH2PO4, 1.2 mM MgCl2, 11.1 mM glucose, and 21.4 mM NaHCO3) before recording.
(§3) Slices were transferred to the recording chamber at 32° C. and perfused continuously with oxygenated ACSF at a flow rate of 1.8-2.0 ml/min. […] Recordings were made using a MultiClamp 700B amplifier (Axon Instruments), sampled using Digidata 1440A, and analyzed offline with pClamp 10.3 software (Axon Instruments). Series resistance was monitored during the recording, and the values were generally <10 MO and were not compensated. The liquid junction potential was monitored and corrected. […] To ensure each recorded neuron receive same amount of Lac-Phe, the neurons located on the surface of the slice were selected to record and the puff pipette was always put at a 100 μm horizontal and 100 μm vertical distance from the recorded neurons. […] Each neuron was recorded for at least 1 minute at baseline and only the neurons with stable baseline were used to test the Lac-Phe treatment. […]

POMC neurons in the ARH = test: Whole-cell patch-clamp slice electrophysiology, POMC neurons; type: cell-based, mice
Description: as §2, with “Coronal slices (220 μm) were cut with a Microm HM 650V vibratome (Thermo Scientific). Brain slices containing the desired region (ARH, VMH, or DRN) were collected for each corresponding mouse, and recordings were made at levels throughout this brain region. The slices were recovered for ˜30 minutes at 32° C. and then maintained at room temperature for another 1 hour in oxygenated (95% O2 and 5% CO2) artificial cerebrospinal fluid (ACSF, pH 7.4; containing 126 mM NaCl, 2.5 mM KCl, 2.4 mM CaCl2, 1.2 mM NaH2PO4, 1.2 mM MgCl2, 11.1 mM glucose, and 21.4 mM NaHCO3) before recording.” left out
as §3

[7] = system: serotonin (5-HT)-positive neurons in the dorsal raphe nuclei (DRN); test: Whole-cell patch-clamp slice electrophysiology, 5-HT neurons; type: cell-based, mice; conditions: 50 μM
Description: (§4) Slice electrophysiology studies. Several genetic mouse strains were used for electrophysiological recordings from identified neural populations. These included AgRP-IRES-Cre/Rosa26-LSL-tdTOMATO mice for recordings from AgRP neurons in the arcuate nucleus of hypothalamus (ARH); POMC-CreER/Rosa26-LSL-tdTOMATO mice (with 200 mg/kg tamoxifen induction at 8-12 weeks) were used for recordings from POMC neurons in the ARH; SF1-Cre/Rosa26-LSL-tdTOMATO mice were used for recordings from SF1 neurons in the ventromedial hypothalamus (VMH); TPH2-CreER/Rosa26-LSL-tdTOMATO mice (with 200 mg/kg tamoxifen induction at 8-12 weeks) were used for recording from 5-HT neurons in the dorsal raphe nucleus (DRN). […]
(§5) Slices were transferred to the recording chamber at 32° C. and perfused continuously with oxygenated ACSF at a flow rate of 1.8-2.0 ml/min. […] Recordings were made using a MultiClamp 700B amplifier (Axon Instruments), sampled using Digidata 1440A, and analyzed offline with pClamp 10.3 software (Axon Instruments). Series resistance was monitored during the recording, and the values were generally <10 MO and were not compensated. The liquid junction potential was monitored and corrected. […] Each neuron was recorded for at least 1 minute at baseline and only the neurons with stable baseline were used to test the Lac-Phe treatment. […]

[8] = system: SF1-positive neurons of the ventromedial hypothalamic nucleus (VMH); test: Whole-cell patch-clamp slice electrophysiology, SF1 neurons; type: cell-based, mice; conditions: 50 μM
Description: as §4, §5

RAW264.7 cells = test: In vitro Lac-Phe production assay with added lactate, RAW264.7; type: cell-based, murine; conditions: lactate 25 mM in conditioned media
Description: Cell line cultures. All cell lines were obtained from ATCC and grown at 37° C. with 5% CO2. RAW 264.7, HEK293T, HEK293A, C2C12, F442A, 3T3-L1, Caco2, and SW48 were grown in Dulbecco's modified Eagle's medium (DMEM) with 10% fetal bovine serum (FBS) and penicillin/streptomycin (pen/strep). AML-12 cells were grown in DMEM with 10% FBS and pen/strep supplemented with Insulin-Transferrin-Selenium. T84 cells were grown in Dulbecco's modified Eagle's medium/nutrient mixture F-12 (DMEM/F-12) with 5% FBS and pen/strep.
In vitro Lac-Phe Production assay. Cells were plated in 12-well plates at 70-80% confluence. The next day, cells were washed two times with PBS and incubated in 0.5 ml serum free media. After overnight incubation, 400 μl of media was removed and 20 μl of 1 M hydrochloride added to acidify the media and protonate Lac-Phe. 400 μl of ethyl acetate was added into each sample and vortexed for 30 seconds to extract Lac-Phe into the organic layer. 300 μl from the top layer was transferred to a new Eppendorf tube and dried down under a stream of nitrogen. The residue was re-suspended in 100 ul of an 80:20 mixture of acetonitrile/water. Cells were kept on ice to harvest the lysate. 150 μl of PBS was added into each well and the cells scraped into an Eppendorf tube. This step was repeated again to ensure all cells have been harvested. […]

[9] = system: primary peritoneal macrophages; test: In vitro Lac-Phe production assay with added lactate, primary macrophages; type: cell-based, mice; conditions: lactate 25 mM in conditioned media
Description: Primary peritoneal macrophage isolation. Mice were injected with 2 ml of 3% brewer thioglycollate medium (Fisher, B111716) and the macrophage elicitation allowed to proceed for 3 days. For the macrophage isolation, mice were euthanized with CO2 and the abdominal skin peeled back to expose the peritoneal wall. 10 ml of ice-cold calcium and magnesium free DPBS was injected into the peritoneal cavity, taking care not to puncture the organs. The mice were gently massaged and the fluid aspirated from the peritoneum using the same syringe and needle. The fluid was dispensed into a 50 ml falcon tube on ice. Cells were then centrifuged at 4° C. for 10 minutes at 400×g. The supernatant was discarded and the cells re-suspended in cold DMEM/F-12 containing 10% FBS and pen/strep. Cells were allowed to adhere in the incubator for at least 2 hours then washed three times in warm PBS to remove non-adherent cells. Fresh media was added to the cells and experiments performed within 1-2 days after the isolation.
In vitro Lac-Phe Production assay. Cells were plated in 12-well plates at 70-80% confluence. The next day, cells were washed two times with PBS and incubated in 0.5 ml serum free media. After overnight incubation, 400 μl of media was removed and 20 μl of 1 M hydrochloride added to acidify the media and protonate Lac-Phe. […]

[10] = 50 mg/kg/day IP, 10 days, DIO mice

Structure (SMILES): C[C@H](O)C(=O)N[C@@H](Cc1ccccc1)C(=O)O [Lac-Phe, N-lactoyl-phenylalanine]
- concentration at 30 min [1]: 3.8 µM
- suppression of food intake compared to vehicle-treated mice ([2]; 12 h post-administration): 52%
- carbon dioxide production (VCO2) ([2]; 12 hr): did not alter
- oxygen consumption (VO2) ([2]; 12 hr): did not alter
- respiratory exchange ratio (RER) ([2]; 12 hr): did not alter
- food intake over 12 h post-administration ([2]; mean±SEM (vehicle 6.4±0.6)): 3.0±1.0 kcal/mouse
- ambulatory activity ([2]; vs vehicle): not different between groups
- brown fat (BAT) mass vs vehicle [3, 10]: −41%
- change in total body weight [3, 10]: −7%
- epididymal fat (eWAT) mass vs vehicle [3, 10]: −20%
- subcutaneous inguinal fat (iWAT) mass vs vehicle [3, 10]: −41%
- total lean mass, estimated by weights of other organs [3, 10]: unaffected
- reduction in body weight ([3]; 50 mg/kg/day IP, 10 days, DIO mice, mean±SEM): -2.8 ± 1.1 g
- food intake, chronic treatment ([3]; 50 mg/kg/day IP, 10 days, DIO mice, mean±SEM (vehicle 2.9±0.1)): 2.1±0.1 g/mouse/day
- glucose tolerance test ([3]; day 10, 1 g/kg glucose, 6 h fast, vs vehicle): improved glucose clearance
- body weight vs control [4]: suppressed
- food intake vs control [4]: suppressed
- glucose homeostasis (glucose tolerance test) ([5]; 1 g/kg glucose, 6 h fast): improves glucose homeostasis
- body weight ([5]; 9-day, 18 week male DIO mice): suppresses
- appetite (cumulative food intake) ([5]; 18 week male DIO mice): suppresses
- effect on AgRP neurons (firing frequency, resting membrane potential) ([6]; 50 μM): rapidly inhibited
- hyperpolarization of AgRP neurons in presence of TTX, DNQX, D-AP5, bicuculline ([6]; 50 μM with inhibitor cocktail): persisted
- AgRP neurons hyperpolarized (response ratio) ([6]; all concentrations tested, baseline or inhibitor-treated): > 70%
- concentration showing inhibitory activity on AgRP neurons ([6]; dose response, lowest active concentration): ≥ 1 µM
- effect on POMC neurons (firing frequency, depolarization) (POMC neurons in the ARH; 50 μM): rapidly activate
- depolarization of POMC neurons in presence of inhibitor cocktail (POMC neurons in the ARH; 50 μM with inhibitor cocktail): persisted
- concentration required to activate POMC neurons (POMC neurons in the ARH; dose response): at least 20 μM
- excitability of 5-HT-positive neurons [7]: No effect
- excitability of SF1-positive neurons [8]: No effect

Structure (SMILES): C[C@H](O)C(=O)[O-].[Na+] [lactate, sodium L-lactate]
- body weight vs control [4]: identical to vehicle treated mice
- food intake vs control [4]: identical to vehicle treated mice
- increase of extracellular levels of Lac-Phe (RAW264.7 cells): +85%
- increase of extracellular levels of Lac-Phe [9]: +200%

Structure (SMILES): N[C@@H](Cc1ccccc1)C(=O)O [phenylalanine, L-Phenylalnine]
- body weight vs control [4]: identical to vehicle treated mice
- food intake vs control [4]: identical to vehicle treated mice
